# Data published in patent US6130248A, “Tricarboxylic acid-containing oxyalkyl esters and uses thereof” (Bar-ILAn University, priority 1996, dated 2000).
# Assays:
# [1] = system: cancer cell lines (CFPAC, HL-60, HT-29, MCF7); assay: SRB cell proliferation assay, all cell lines together; format: cell-based
# Procedure: (§1) The inhibition of cell proliferation was measured in the indicated cancer cell lines using the sulforhoamine B (SRB) assay as described by Monks et al., J. Natl. Can. Inst. […] The SRB assay is used to screen for anti-cancer drugs.
# [2] = system: established tumor cell lines; assay: Clonogenicity of established tumor cell lines, all lines together; format: cell-based, human; details: all cell lines
# Procedure: (§2) Inhibition of tumor growth was tested using cell lines as follows: […]
# [3] = system: MCF-7 cells (WAF); assay: Apoptosis in breast cancer cells, staining with WAF antibody / Western blot; format: cell-based, human
# Procedure: Induction of apoptosis by COMB and AB in MCF-7 cells was evaluated by staining cells with the WAF antibody and by Western blot analysis as described by Bacus et al., 1996, Oncogene 12:2535-2547.
# [4] = system: Au565 breast carcinoma cells; assay: Differentiation by lipid staining; format: cell-based, human; details: 10 μM
# Text: Lipid staining and/or immunochemical staining of casein can be used as a marker for cellular differentiation of breast cancer cells (Bacus et al., Md. Carcin. 3:350-362, 1990). Casein detection can be done by histochemical staining of breast cancer cells using a human antibody to human casein as described by Cheung et al., J. Clin. Invest. 75:1722-1728,which is incorporated by reference in its entirety.
# In the case of the human breast carcinoma cell line Au565, 100%. Of the cells treated with 10 μM GOMB were positive for lipid staining whereas less than 1% of cells treated with the same concentration of AB were positive for lipid staining.
# [5] = system: K562 cells (HbF); assay: HbF synthesis in K562 cells (ion-exchange HPLC); format: cell-based, human
# Procedure: K562 cells: K562 is an erthroblast cell line that develops some properties of erythroid, megakaryocyte or monocyte cells, depending on the specific stimulus, when induced by different chemicals. K562 cells were grown in RPMI with 10% FCS, supplemented with 2 mM glutamine. Cells were incubated at 37° C. in a humidified, 5% CO2 incubator.
# [6] = system: HL-60 cells; assay: SRB cell proliferation assay; format: cell-based; details: Homo sapiens; HL-60, SRB
# Procedure: as §1
# [7] = system: HT-29 cells; assay: SRB cell proliferation assay; format: cell-based; details: Homo sapiens; HT-29, SRB
# Procedure: as §1
# [8] = system: MCF7 cells; assay: SRB cell proliferation assay; format: cell-based; details: Homo sapiens
# Procedure: as §1
# [9] = system: CFPAC cells; assay: SRB cell proliferation assay; format: cell-based
# Procedure: as §1
# [10] = system: SK-N-SH (Neuroblastoma); assay: Clonogenicity of established tumor cell lines (soft agar); format: cell-based, human
# Procedure: as §2
# [11] = system: SMS-KAN (Neuroblastoma); assay: as above; format: cell-based, human
# Procedure: as §2
# [12] = system: SK-N-MC (Neuroblastoma); assay: as above; format: cell-based, human
# Procedure: as §2
# [13] = system: LNCaP (Prostate Carcinoma); assay: as above; format: cell-based, human
# Procedure: as §2
# [14] = system: IMR-32 (Neuroblastoma); assay: as above; format: cell-based, human
# Procedure: as §2
# [15] = system: LA1-5S (Neuroblastoma); assay: as above; format: cell-based, human
# Procedure: as §2
# [16] = system: MCF7-WT (Breast Carcinoma); assay: as above; format: cell-based, human
# Procedure: as §2
# [17] = system: NBAS-5 (Neuroblastoma); assay: as above; format: cell-based, human
# Procedure: as §2
# [18] = system: NBL-W-N (Neuroblastoma); assay: as above; format: cell-based, human
# Procedure: as §2
# [19] = system: MCF7-40F (Breast Carcinoma); assay: as above; format: cell-based, human
# Procedure: as §2
# [20] = system: K562 (Erytholeukemia); assay: as above; format: cell-based, human
# Procedure: as §2
# [21] = system: PC3 (Prostate Carcinoma); assay: as above; format: cell-based, human
# Procedure: as §2
# [22] = Homo sapiens, SK-N-SH clonogenicity
# [23] = Homo sapiens, SMS-KAN clonogenicity
# [24] = Homo sapiens, SK-N-MC clonogenicity
# [25] = Homo sapiens, LNCaP clonogenicity
# [26] = Homo sapiens, IMR-32 clonogenicity
# [27] = Homo sapiens, LA1-5S clonogenicity
# [28] = Homo sapiens, MCF7-WT clonogenicity
# [29] = Homo sapiens, NBAS-5 clonogenicity
# [30] = Homo sapiens, NBL-W-N clonogenicity
# [31] = Homo sapiens, MCF7-40F clonogenicity
# [32] = Homo sapiens, K562 clonogenicity
# [33] = Homo sapiens, PC3 clonogenicity
smiles,measurement,setting,value
"CCCC(=O)OCOC(=O)CCCC(=O)O [GOMB, mono-(butyroyloxymethyl)glutarate]",activity relative to AB by IC50 and IC90 values,[1],at least 100 fold
same,"ratio of IC50 AB:IC50 GOMB, median",[2],28.5
same,"ratio of IC90 AB:IC90 GOMB, median",[2],53
same,"ratio of IC90 AB:IC90 GOMB, range",[2],26-342 fold
same,% Cells Expressing WAF,[3]; 10 μM,36%
same,% Cells Expressing WAF,[3]; 25 μM,34%
same,% Cells Expressing WAF,[3]; 50 μM,79%
same,% Cells Expressing WAF,[3]; 100 μM,81%
same,increase in percentage of cells expressing WAF,[3]; versus 13% in the controls,623%
same,"concentration inducing apoptosis, lower than AB",[3]; versus AB,10 fold
same,cells positive for lipid staining,[4],100%
same,HbF Synthesis in K562 Cells,[5]; 0.01 mM,1.54 µg/mL
same,HbF Synthesis in K562 Cells,[5]; 0.05 mM,3.21 µg/mL
same,HbF Synthesis in K562 Cells,[5]; 0.10 mM,5.0 µg/mL
same,IC50,[6],24.5 µM
same,IC90,[6],53.6 µM
same,IC50,[7],98.2 µM
same,IC90,[7],123 µM
same,IC50,[8],109 µM
same,IC90,[8],218 µM
same,IC50,[9],32.5 µM
same,IC90,[9],41 µM
same,IC50,[10]; [22],28 µM
same,IC90,[10]; [22],95 µM
same,AB/GOMB IC50 Ratio,[10]; SK-N-SH,35.6
same,AB/GOMB IC90 Ratio,[10]; SK-N-SH,37.8
same,IC50,[11]; [23],27 µM
same,IC90,[11]; [23],80 µM
same,AB/GOMB IC50 Ratio,[11]; SMS-KAN,42
same,AB/GOMB IC90 Ratio,[11]; SMS-KAN,26
same,IC50,[12]; [24],16 µM
same,IC90,[12]; [24],35 µM
same,AB/GOMB IC50 Ratio,[12]; SK-N-MC,13.4
same,AB/GOMB IC90 Ratio,[12]; SK-N-MC,37.5
same,IC50,[13]; [25],68.1 µM
same,IC90,[13]; [25],107 µM
same,AB/GOMB IC50 Ratio,[13]; LNCaP,11.4
same,AB/GOMB IC90 Ratio,[13]; LNCaP,63
same,IC50,[14]; [26],23 µM
same,IC90,[14]; [26],41 µM
same,AB/GOMB IC50 Ratio,[14]; IMR-32,38
same,AB/GOMB IC90 Ratio,[14]; IMR-32,87
same,IC50,[15]; [27],39 µM
same,IC90,[15]; [27],59 µM
same,AB/GOMB IC50 Ratio,[15]; LA1-5S,42
same,AB/GOMB IC90 Ratio,[15]; LA1-5S,45
same,IC50,[16]; [28],43.5 µM
same,IC90,[16]; [28],97 µM
same,AB/GOMB IC50 Ratio,[16]; MCF7-WT,34.5
same,AB/GOMB IC90 Ratio,[16]; MCF7-WT,97.7
same,IC50,[17]; [29],16 µM
same,IC90,[17]; [29],38 µM
same,AB/GOMB IC50 Ratio,[17]; NBAS-5,23.2
same,AB/GOMB IC90 Ratio,[17]; NBAS-5,343
same,IC50,[18]; [30],25 µM
same,IC90,[18]; [30],70 µM
same,AB/GOMB IC50 Ratio,[18]; NBL-W-N,19.6
same,AB/GOMB IC90 Ratio,[18]; NBL-W-N,44
same,IC50,[19]; [31],65.9 µM
same,IC90,[19]; [31],85.3 µM
same,AB/GOMB IC50 Ratio,[19]; MCF7-40F,12.4
same,AB/GOMB IC90 Ratio,[19]; MCF7-40F,37.3
same,IC50,[20]; [32],43.3 µM
same,IC90,[20]; [32],97 µM
same,AB/GOMB IC50 Ratio,[20]; K562,17.8
same,AB/GOMB IC90 Ratio,[20]; K562,68.6
same,IC50,[21]; [33],34.9 µM
same,IC90,[21]; [33],96.1 µM
same,AB/GOMB IC50 Ratio,[21]; PC3,6.48
same,AB/GOMB IC90 Ratio,[21]; PC3,46.6
